From article PMC6291527, “A Nanostructured Lipid System to Improve the Oral Bioavailability of Ruthenium(II) Complexes for the Treatment of Infections Caused by Mycobacterium tuberculosis” (Frontiers in Microbiology, 2018)
In brackets after ≈: the same amount, converted by molar mass.

Experiments:
Test in all cases: microbe, parasite or virus in culture
Assay type in all cases: cell-based, Mycobacterium tuberculosis
[1] = test system: M. tuberculosis clinical isolate CF169; settings: for MIC90: Mycobacterium tuberculosis, read-out: MIC90 of the Compounds, isolate CF169; for MIC90 of the Compounds, isolate CF169: REMA, CF169 resistant to INH and RIF, NL = not loaded (DMSO), L = loaded into NLS
[2] = test system: M. tuberculosis clinical isolate CF158; settings: for MIC90: Mycobacterium tuberculosis, read-out: MIC90 of the Compounds, isolate CF158; for MIC90 of the Compounds, isolate CF158: REMA, CF158 resistant to INH and RIF, NL = not loaded (DMSO), L = loaded into NLS
[3] = test system: M. tuberculosis clinical isolate CF100; settings: for MIC90: Mycobacterium tuberculosis, read-out: MIC90 of the Compounds, isolate CF100; for MIC90 of the Compounds, isolate CF100: REMA, CF100 resistant to INH, NL = not loaded (DMSO), L = loaded into NLS

Row | Compound | MIC90 [1] | MIC90 [2] | MIC90 [3] | MIC90 of the Compounds, isolate CF158 [2] | MIC90 of the Compounds, isolate CF100 [3] | MIC90 of the Compounds, isolate CF169 [1]
1 | NCC[C@H](O)C(=O)N[C@@H]1C[C@H](N)[C@@H](O[C@H]2O[C@H](CN)[C@@H](O)[C@H](O)[C@H]2O)[C@H](O)[C@H]1O[C@H]1O[C@H](CO)[C@@H](O)[C@H](N)[C@H]1O [AMI, amikacin] | 0.6 µg/mL (≈ 1.02 µM) | 0.6 µg/mL (≈ 1.02 µM) | 0.7 µg/mL (≈ 1.2 µM) | – | – | –
2 | COc1c(N2CCNC(C)C2)c(F)cc2c(=O)c(C(=O)O)cn(C3CC3)c12 (stereo not shown) [GAT, gatifloxacin] | 1.2 µg/mL (≈ 3.2 µM) | 0.2 µg/mL (≈ 0.533 µM) | 0.5 µg/mL (≈ 1.33 µM) | – | – | –
3 | NNC(=O)c1ccncc1 [INH, isoniazid] | > 50 µg/mL | > 50 µg/mL | > 50 µg/mL | >50 µg/mL | >50 µg/mL | –
4 | NC[C@@H]1O[C@@H](O[C@H]2[C@H](O)[C@@H](O[C@H]3O[C@H](CO)[C@@H](O)[C@H](N)[C@H]3O)[C@H](N)C[C@@H]2N)[C@@H](O)[C@H](O)[C@H]1O [KAN] | – | – | – | 2.8 µg/mL | 7.8 µg/mL | 1.5 µg/mL
5 | CC1COc2c(N3CCN(C)CC3)c(F)cc3c(=O)c(C(=O)O)cn1c23 (stereo not shown) [OFL, ofloxacin] | 11.5 µg/mL (≈ 31.8 µM) | 0.7 µg/mL (≈ 1.94 µM) | 0.9 µg/mL (≈ 2.49 µM) | – | – | –
6 | CO[C@H]1/C=C/O[C@@]2(C)Oc3c(C)c(O)c4c(O)c(c(/C=N/N5CCN(C)CC5)c(O)c4c3C2=O)NC(=O)/C(C)=C\C=C\[C@H](C)[C@H](O)[C@@H](C)[C@@H](O)[C@@H](C)[C@H](OC(C)=O)[C@@H]1C [RIF, rifampicin] | > 50 µg/mL | > 50 µg/mL | < 0.195 µg/mL | >50 µg/mL | – | >50 µg/mL
7 | Cc1ccnc(-c2cc(C)ccn2)c1.F[P-](F)(F)(F)(F)F.O=C([O-])c1ccccn1.[Ru+2].c1ccc(P(CCCCP(c2ccccc2)c2ccccc2)c2ccccc2)cc1 [SCAR2, [Ru(pic)(dppb)(Me-bipy)]PF6] | – | – | – | 1.6^∗ μg mL^-1 | 5.7 µg/mL | 2.6^∗ μg mL^-1
8 | F[P-](F)(F)(F)(F)F.O=C([O-])c1ccccn1.[Ru+2].c1ccc(P(CCP(c2ccccc2)c2ccccc2)c2ccccc2)cc1.c1ccc(P(CCP(c2ccccc2)c2ccccc2)c2ccccc2)cc1 [SCAR5, cis-[Ru(pic)(dppe)2]PF6] | – | – | – | 2.9^∗ μg mL^-1 | 5.1 µg/mL | 2.9^∗ μg mL^-1
9 | [Ru(pic)(dppb)(bipy)]PF6 [SCAR1] | – | – | – | 2.6^∗ μg mL^-1 | 10.9 µg/mL | 2.9^∗ μg mL^-1
10 | [Ru(pic)(dppb)(phen)]PF6 [SCAR4] | – | – | – | 2.7 µg/mL | 5.4 µg/mL | 3.0 µg/mL
11 | [Ru(pic)(dppe)(phen)]PF6 [SCAR7] | – | – | – | 3.0 µg/mL | 7.3^∗ μg mL^-1 | 4.4 µg/mL
